28 molecules from US12378224B2 (Dong-A Socio Holdings Co., Ltd., priority 2016, dated 2025) can be followed below.

Some results are limits rather than exact numbers.

This assay addresses human c-MER catalytic domain (Homo sapiens (Human), UniProt Q12866). Briefly: TR-FRET Kinase Activity Biochemical Assay (LanthaScreen). The settings on record: 10 uM ATP, 1 hour, kinase not given. An outline of the steps:
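Activity was quantified as the ratio of 495 nm to 520 nm emission (excitation 340 nm) in a LanthaScreen TR-FRET format. The enzyme was the human c-MER catalytic domain, and the substrate was fluorescein-poly-GT. Detection used 2 nM Tb anti-phosphotyrosine antibody for 30 min after termination with 10 mM EDTA.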

human c-MER catalytic domain, sequence (Q12866 587-858): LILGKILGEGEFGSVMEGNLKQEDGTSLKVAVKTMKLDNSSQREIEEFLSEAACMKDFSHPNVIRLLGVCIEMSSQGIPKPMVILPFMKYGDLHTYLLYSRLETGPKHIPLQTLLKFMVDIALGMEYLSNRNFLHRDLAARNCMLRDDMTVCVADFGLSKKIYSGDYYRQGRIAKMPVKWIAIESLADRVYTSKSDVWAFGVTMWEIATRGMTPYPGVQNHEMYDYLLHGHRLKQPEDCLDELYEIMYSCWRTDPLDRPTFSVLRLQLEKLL

Regarding `CN1CCC(NCc2ccc(-c3ccc(C(=O)N4CC[C@@H](NC(=O)c5cc(-c6cnn(C)c6)cnc5N)C4)cc3)cc2)CC1` [Example 549, (R)-2-amino-5-(1-methyl-1H-pyrazol-4-yl)-N-(1-(4′-(((1-methylpiperidin-4-yl)amino)methyl)-[1,1′-biphenyl]-4-carbonyl)pyrrolidin-3-yl)nicotinamide], the concentration for half-maximal inhibition (IC50) fell in the range of 100 to 1000 nM. For `CN(C)CCCOc1ccc(-c2ccc(C(=O)N3CC[C@@H](NC(=O)c4cc(-c5cnn(C)c5)cnc4N)C3)cc2)cc1` [Example 551, (R)-2-amino-N-(1-(4′-(3-(dimethylamino)propoxy)-[1,1′-biphenyl]-4-carbonyl)pyrrolidin-3-yl)-5-(1-methyl-1H-pyrazol-4-yl)nicotinamide] the value was 10 to 100 nM; for `COc1ccc(-c2cnc(N)c(C(=O)N[C@@H]3CCN(C(=O)c4ccc(-c5ccccc5)cc4)C3)c2)cc1` [Example 555, (R)—N-(1-([1,1′-biphenyl]-4-carbonyl)pyrrolidin-3-yl)-2-amino-5-(4-methoxyphenyl)nicotinamide], 100 to 1000 nM; for `Nc1ncc(-c2ccc(N3CCOCC3)cc2)cc1C(=O)N[C@@H]1CCN(C(=O)c2ccc(-c3ccccc3)cc2)C1` [Example 557, (R)—N-(1-([1,1′-biphenyl]-4-carbonyl)pyrrolidin-3-yl)-2-amino-5-(4-morpholinophenyl)nicotinamide], 10 to 100 nM.

`CC(C)(C)OC(=O)N1CCC(n2cc(-c3cnc(N)c(C(=O)N[C@@H]4CCN(C(=O)c5ccc(-c6ccccc6)cc5)C4)c3)cn2)CC1` [Example 561, tert-butyl (R)-4-(4-(5-((1-([1,1′-biphenyl]-4-carbonyl)pyrrolidin-3-yl)carbamoyl)-6-aminopyridin-3-yl)-1H-pyrazol-1-yl)piperidine-1-carboxylate] yielded a half-maximal inhibitory concentration (IC50) of 10 to 100 nM. For `CC(C)(c1ccc(-c2cnc(N)c(C(=O)N[C@@H]3CCN(C(=O)c4ccc(-c5ccccc5)cc4)C3)c2)cc1)N1CCNCC1` [Example 564, (R)—N-(1-([1,1′-biphenyl]-4-carbonyl)pyrrolidin-3-yl)-2-amino-5-(4-(2-(piperazin-1-yl)propan-2-yl)phenyl)nicotinamide] the value was less than 10 nM; for `Nc1ncc(-c2ccc(CN3CCOCC3)cc2)cc1C(=O)N[C@@H]1CCN(C(=O)c2ccc(-c3ccccc3)cc2)C1` [Example 569, (R)—N-(1-([1,1′-biphenyl]-4-carbonyl)pyrrolidin-3-yl)-2-amino-5-(4-(morpholinomethyl)phenyl)nicotinamide], 10 to 100 nM; for `Nc1ncc(-c2ccc(N3CCOCC3)cc2)cc1C(=O)N[C@@H]1CCN(C(=O)c2ccc(-c3ccccc3Cl)cc2)C1` [Example 571, (R)-2-amino-N-(1-(2′-chloro-[1,1′-biphenyl]-4-carbonyl)pyrrolidin-3-yl)-5-(4-morpholinophenyl)nicotinamide], 10 to 100 nM. On to `Nc1ncccc1C(=O)N[C@@H]1CCN(C(=O)c2ccc(-c3ccc(F)cc3Cl)cc2)C1` [Example 579, (R)-2-amino-N-(1-(2′-chloro-4′-fluoro-[1,1′-biphenyl]-4-carbonyl)pyrrolidin-3-yl)nicotinamide], for which the half-maximal inhibitory concentration (IC50) lay within 10 to 100 nM. For `Nc1ncc(-c2ccc(C(=O)NCCCN3CCCC3=O)cc2)cc1C(=O)N[C@@H]1CCN(C(=O)c2ccc(-c3ccccc3Cl)cc2)C1` [Example 595, (R)-2-amino-N-(1-(2′-chloro-[1,1′-biphenyl]-4-carbonyl)pyrrolidin-3-yl)-5-(4-((3-(2-oxopyrrolidin-1-yl)propyl)carbamoyl)phenyl)nicotinamide] the value was 10 to 100 nM. The result for `Cc1ccc(-c2ccc(C(=O)N3CC[C@@H](Nc4n[nH]c5ncc(-c6cnn(C)c6)cc45)C3)cc2)s1` [Example 615, (R)-(3-((5-(1-methyl-1H-pyrazol-4-yl)-1H-pyrazolo[3,4-b]pyridin-3-yl)amino)pyrrolidin-1-yl)(4-(5-methylthiophen-2-yl)phenyl)methanone] reads 10 to 100 nM; that for `Cn1cc(-c2cnc3[nH]nc(N[C@@H]4CCN(C(=O)c5ccc(-c6ccccc6)cc5)C4)c3c2)cn1` [Example 616, (R)-[1,1′-biphenyl]-4-yl(3-((5-(1-methyl-1H-pyrazol-4-yl)-1H-pyrazolo[3,4-b]pyridin-3-yl)amino)pyrrolidin-1-yl)methanone], 100 to 1000 nM. On to `Cn1cc(-c2cnc3[nH]nc(N[C@@H]4CCN(C(=O)c5ccc(-c6ccccc6Cl)cc5)C4)c3c2)cn1` [Example 617, (R)-(2′-chloro-[1,1′-biphenyl]-4-yl)(3-((5-(1-methyl-1H-pyrazol-4-yl)-1H-pyrazolo[3,4-b]pyridin-3-yl)amino)pyrrolidin-1-yl)methanone], for which the IC50 lay within 10 to 100 nM.

`Cn1cc(-c2cnc3[nH]nc(N[C@@H]4CCN(C(=O)c5ccc(-c6ccc(Oc7ccc(N)cc7)cc6)cc5)C4)c3c2)cn1` [Example 620, (R)-(4′-(4-aminophenoxy)-[1,1′-biphenyl]-4-yl)(3-((5-(1-methyl-1H-pyrazol-4-yl)-1H-pyrazolo[3,4-b]pyridin-3-yl)amino)pyrrolidin-1-yl)methanone] yielded a half-maximal inhibitory concentration (IC50) of 100 to 1000 nM.

Molecule `CN1CCN(Cc2cccc(N3CC[C@H](OC(=O)N4CC[C@@H](NC(=O)c5cc(-c6cnn(C)c6)cnc5N)C4)C3)c2)CC1` [Example 626, (S)-1-(3-((4-methylpiperazin-1-yl)methyl)phenyl)pyrrolidin-3-yl (R)-3-(2-amino-5-(1-methyl-1H-pyrazol-4-yl)nicotinamido)pyrrolidine-1-carboxylate] returned a 50% inhibitory concentration (IC50) greater than 1000 nM. Molecule `CN1CCN(Cc2ccc(-c3cc(CN4CC[C@@H](NC(=O)c5cc(-c6cnn(C)c6)cnc5N)C4)ccc3F)cc2)CC1` [Example 633, (R)-2-amino-N-(1-((6-fluoro-4′-((4-methylpiperazin-1-yl)methyl)-[1,1′-biphenyl]-3-yl)methyl)pyrrolidin-3-yl)-5-(1-methyl-1H-pyrazol-4-yl)nicotinamide] gave a half-inhibitory concentration (IC50) of 100 to 1000 nM. On to `Cn1cc(-c2cnc(N)c(C(=O)N[C@@H]3CCN(C(=O)c4ccc(-c5ccc(S(=O)(=O)N6CCC6)cc5)cc4)C3)c2)cn1` [Example 660, (R)-2-amino-N-(1-(4′-(azetidin-1-ylsulfonyl)-[1,1′-biphenyl]-4-carbonyl)pyrrolidin-3-yl)-5-(1-methyl-1H-pyrazol-4-yl)nicotinamide], for which the half-maximal inhibitory concentration (IC50) is 100 to 1000 nM. Consider `CSc1ccc(-c2ccc(C(=O)N3CC[C@@H](NC(=O)c4cc(-c5cnn(C)c5)cnc4N)C3)cc2)cc1` [Example 665, (R)-2-amino-5-(1-methyl-1H-pyrazol-4-yl)-N-(1-(4′-(methylthio)-[1,1′-biphenyl]-4-carbonyl)pyrrolidin-3-yl)nicotinamide], for which the IC50 was in the range of 100 to 1000 nM.

In turn, `CCSc1ccc(-c2ccc(C(=O)N3CC[C@@H](NC(=O)c4cc(-c5cnn(C)c5)cnc4N)C3)cc2)cc1` [Example 666, (R)-2-amino-N-(1-(4′-(ethylthio)-[1,1′-biphenyl]-4-carbonyl)pyrrolidin-3-yl)-5-(1-methyl-1H-pyrazol-4-yl)nicotinamide] yielded a 50% inhibitory concentration (IC50) of 100 to 1000 nM. Consider `Cn1cc(-c2cnc(N)c(C(=O)NC3CN(C(=O)c4cccc(-c5ccccc5)c4)C3)c2)cn1` [Example 670, N-(1-([1,1′-biphenyl]-3-carbonyl)azetidin-3-yl)-2-amino-5-(1-methyl-1H-pyrazol-4-yl)nicotinamide], for which the IC50 was greater than 1000 nM. For `Cn1cc(-c2cnc(N)c(C(=O)NC3(CO)CCN(C(=O)c4ccc(-c5ccccc5)cc4)C3)c2)cn1` (stereo not shown) [Example 671, N-(1-([1,1′-biphenyl]-4-carbonyl)-3-(hydroxymethyl)pyrrolidin-3-yl)-2-amino-5-(1-methyl-1H-pyrazol-4-yl)nicotinamide], the IC50 lay in the range of 10 to 100 nM. The result for `Cn1cc(-c2cnc(N)c(C(=O)NC3(CO)CCN(C(=O)c4cccc(-c5ccccc5)c4)C3)c2)cn1` (stereo not shown) [Example 672, N-(1-([1,1′-biphenyl]-3-carbonyl)-3-(hydroxymethyl)pyrrolidin-3-yl)-2-amino-5-(1-methyl-1H-pyrazol-4-yl)nicotinamide] reads greater than 1000 nM; that for `Cn1cc(-c2cnc(N)c(C(=O)N[C@@H]3CCN(C(=O)c4ccc(-c5ccc(/C=C/C(=O)O)cc5)cc4)C3)c2)cn1` [Example 677, (R,E)-3-(4′-(3-(2-amino-5-(1-methyl-1H-pyrazol-4-yl)nicotinamido)pyrrolidine-1-carbonyl)-[1,1′-biphenyl]-4-yl) acrylic acid], 10 to 100 nM; that for `Cn1cc(-c2cnc(N)c(C(=O)N[C@@H]3CCN(C(=O)c4ccc(-c5ccc(CCC(=O)O)cc5)cc4)C3)c2)cn1` [Example 678, (R)-3-(4′-(3-(2-amino-5-(1-methyl-1H-pyrazol-4-yl)nicotinamido)pyrrolidine-1-carbonyl)-[1,1′-biphenyl]-4-yl) propanoic acid], 100 to 1000 nM.

As to `CCOC(=O)C1CN(C(=O)c2ccc(-c3ccccc3)cc2)CC1NC(=O)c1cc(-c2cnn(C)c2)cnc1N` (stereo not shown) [Example 687, ethyl 1-([1,1′-biphenyl]-4-carbonyl)-4-(2-amino-5-(1-methyl-1H-pyrazol-4-yl)nicotinamido)pyrrolidine-3-carboxylate], the concentration for half-maximal inhibition (IC50) was greater than 1000 nM. For `COC(=O)[C@H]1C[C@@H](NC(=O)c2cc(-c3cnn(C)c3)cnc2N)CN1C(=O)c1ccc(-c2ccc(F)cc2Cl)cc1` [Example 689, methyl (2R,4R)-4-(2-amino-5-(1-methyl-1H-pyrazol-4-yl)nicotinamido)-1-(2′-chloro-4′-fluoro-[1,1′-biphenyl]-4-carbonyl)pyrrolidine-2-carboxylate] the value was greater than 1000 nM. The molecule `CCOC(=O)C1CN(C(=O)c2ccc(-c3ccc(F)cc3Cl)cc2)CC1NC(=O)c1cc(-c2cnn(C)c2)cnc1N` (stereo not shown) [Example 690, ethyl 4-(2-amino-5-(1-methyl-1H-pyrazol-4-yl)nicotinamido)-1-(2′-chloro-4′-fluoro-[1,1′-biphenyl]-4-carbonyl)pyrrolidine-3-carboxylate] returned a 50% inhibitory concentration (IC50) greater than 1000 nM. For `Cn1cc(-c2cnc(N)c(C(=O)N[C@@H]3CCN(C(=O)c4cccc(-c5cnn(S(=O)(=O)c6ccccc6)c5)c4)C3)c2)cn1` [Example 717, (R)-2-amino-5-(1-methyl-1H-pyrazol-4-yl)-N-(1-(3-(1-(phenylsulfonyl)-1H-pyrazol-4-yl)benzoyl)pyrrolidin-3-yl)nicotinamide] the value was greater than 1000 nM.

Usually IC50 stands for the concentration at which inhibition is half-maximal. Low readings indicate higher potency, high ones lower potency.
